# In patent US20030036532A1, “Use of 2-phenylene diamine derivatives for the treatment of infections” (priority 2000, published 2003):
# Tested on: Plasmodium falciparum
# Experiment: antimalarial activity in in vitro cultures of Plasmodium falciparum, inhibition of [3H]-hypoxanthine incorporation
# Assay type: cell-based
# Details: inhibition of tritium incorporation relative to comparison without substance, 48 h + 24 h incubation; for inhibition at 10 µM / inhibition at 100 µM: Plasmodium falciparum; for inhibition at 10 µM / % Inhibition at 10 μM: 10 μM compound; for inhibition at 100 µM / % Inhibition at 100 μM: 100 μM compound; for % Inhibition at 1 μM: 1 μM compound
# Experimental: To determine the anti-malaria activity, for example, the inhibition of the growth of malaria parasites in blood cultures is determined. […] The plates are incubated at 37° C., 3% CO2 and 5% O2 over a period of 48 hours. 30 μl of medium supplemented with 27 μCi ml^−1 [^3H]-hypoxanthine were then added to each well. After 24 hours' incubation, the parasites were harvested by filtration through glass fiber filters and the incorporated radioactivity was measured. Inhibition of parasite growth was measured as the percentage inhibition of tritium incorporation relative to a comparison without substance. The table states the percentage inhibition in dependence of the concentrations.
molecule,measurement,value
"CCCCCCCCCCCCCCCCCCCC(=O)Nc1ccc(NC(=O)Cc2ccc(C)cc2)c(C(=O)c2ccccc2)c1 [compound 10, N-[3-benzoyl-4-[[2-(4-methylphenyl)acetyl]amino]phenyl]eicosanoic Acid Amide]",inhibition at 10 µM,0%
same,inhibition at 100 µM,99%
"CCCCCCCCCCCCCCCC(=O)NCCC(=O)Nc1ccc(NC(=O)Cc2ccccc2)c(C(=O)c2ccccc2)c1 [compound 11, N-[3-[3-benzoyl-4-[(2-phenylacetyl)amino]phenylamino]-3-oxopropyl]-hexadecanoic Acid Amide]",inhibition at 10 µM,0%
same,inhibition at 100 µM,98%
"Cc1ccc(CC(=O)Nc2ccc(NC(=O)CNC(=O)C=Cc3ccc(-c4ccccc4)cc3)cc2C(=O)c2ccccc2)cc1 [compound 12, N-[2-[3-benzoyl-4-[[2-(4-methylphenyl)acetyl]amino]phenylamino]-2-oxo-ethyl]-4-phenylcinnamic Acid Amide]",inhibition at 10 µM,67%
same,inhibition at 100 µM,89%
"O=C(C=Cc1ccc(OCc2ccccc2)cc1)NCCC(=O)Nc1ccc(NC(=O)Cc2ccccc2)c(C(=O)c2ccccc2)c1 [compound 13, N-[3-[3-benzoyl-4-[(2-phenylacetyl)amino]phenylamino]-3-oxopropyl]-4-benzyl-oxycinnamic Acid Amide]",inhibition at 10 µM,97%
same,inhibition at 100 µM,95%
"Cc1ccc(CC(=O)Nc2ccc(NC(=O)c3cccnc3)cc2C(=O)c2ccccc2)cc1 [compound 14, N-[3-benzoyl-4-[2-(4-methylphenyl)acetyl]amino]phenylnicotinic Acid Amide]",% Inhibition at 10 μM,0%
same,% Inhibition at 100 μM,34%
Cc1ccc(CC(=O)Nc2ccc(NC(=O)c3ccccc3)cc2C(=O)c2ccccc2)cc1 [compound 15],% Inhibition at 1 μM,0%
same,% Inhibition at 10 μM,77%
same,% Inhibition at 100 μM,96%
Cc1ccc(CC(=O)Nc2ccc(NC(=O)Cc3ccccc3)cc2C(=O)c2ccccc2)cc1 [compound 16],% Inhibition at 1 μM,0%
same,% Inhibition at 10 μM,0%
same,% Inhibition at 100 μM,94%
Cc1ccc(CC(=O)Nc2ccc(NC(=O)CCc3ccccc3)cc2C(=O)c2ccccc2)cc1 [compound 17],% Inhibition at 1 μM,0%
same,% Inhibition at 10 μM,91%
same,% Inhibition at 100 μM,94%
Cc1ccc(CC(=O)Nc2ccc(NC(=O)CCC3CCCCC3)cc2C(=O)c2ccccc2)cc1 [compound 18],% Inhibition at 1 μM,9%
same,% Inhibition at 10 μM,98%
same,% Inhibition at 100 μM,98%
Cc1ccc(CC(=O)Nc2ccc(NC(=O)CCCc3ccccc3)cc2C(=O)c2ccccc2)cc1 [compound 19],% Inhibition at 1 μM,0%
same,% Inhibition at 10 μM,95%
same,% Inhibition at 100 μM,97%
Cc1ccc(CC(=O)Nc2ccc(NC(=O)CCCCc3ccccc3)cc2C(=O)c2ccccc2)cc1 [compound 20],% Inhibition at 1 μM,0%
same,% Inhibition at 10 μM,94%
same,% Inhibition at 100 μM,97%
Cc1ccc(CC(=O)Nc2ccc(NC(=O)C=Cc3ccccc3)cc2C(=O)c2ccccc2)cc1 [compound 21],% Inhibition at 1 μM,0%
same,% Inhibition at 10 μM,95%
same,% Inhibition at 100 μM,94%
Cc1ccc(CC(=O)Nc2ccc(NC(=O)C=Cc3ccc([N+](=O)[O-])cc3)cc2C(=O)c2ccccc2)cc1 [compound 22],% Inhibition at 1 μM,0%
same,% Inhibition at 10 μM,82%
same,% Inhibition at 100 μM,88%
"Cc1ccc(CC(=O)Nc2ccc(NC(=O)C=Cc3ccc(-c4ccccc4)cc3)cc2C(=O)c2ccccc2)cc1 [compound 23, N-[3-[3-benzoyl-4-[2-(4-methylphenyl)acetyl]amino]phenylamino]-4-phenyl-cinnamic Acid Amide]",% Inhibition at 1 μM,82%
same,% Inhibition at 10 μM,94%
same,% Inhibition at 100 μM,94%
Cc1ccc(CC(=O)Nc2ccc(NC(=O)C=Cc3ccc(OCc4ccccc4)cc3)cc2C(=O)c2ccccc2)cc1 [compound 24],% Inhibition at 1 μM,85%
same,% Inhibition at 10 μM,96%
same,% Inhibition at 100 μM,97%
Cc1ccc(CC(=O)Nc2ccc(NC(=O)c3cccc4ccccc34)cc2C(=O)c2ccccc2)cc1 [compound 26],% Inhibition at 1 μM,0%
same,% Inhibition at 10 μM,65%
same,% Inhibition at 100 μM,93%
Cc1ccc(CC(=O)Nc2ccc(NC(=O)C3c4ccccc4-c4ccccc43)cc2C(=O)c2ccccc2)cc1 [compound 28],% Inhibition at 1 μM,0%
same,% Inhibition at 10 μM,0%
same,% Inhibition at 100 μM,98%
Cc1ccc(CC(=O)Nc2ccc(-c3ccccc3CNC(=O)CS)cc2C(=O)c2ccccc2)cc1 [compound 29],% Inhibition at 1 μM,0%
same,% Inhibition at 10 μM,91%
same,% Inhibition at 100 μM,97%
Cc1ccc(CC(=O)Nc2ccc(NC(=O)COCc3ccccc3)cc2C(=O)c2ccccc2)cc1 [compound 30],% Inhibition at 1 μM,0%
same,% Inhibition at 10 μM,93%
same,% Inhibition at 100 μM,97%
Cc1ccc(CC(=O)Nc2ccc(NC(=O)CSCc3ccc([N+](=O)[O-])cc3)cc2C(=O)c2ccccc2)cc1 [compound 32],% Inhibition at 1 μM,0%
same,% Inhibition at 10 μM,0%
same,% Inhibition at 100 μM,96%
"COC(=O)CC(=O)Nc1ccc(NC(=O)C(C)c2ccccc2)c(C(=O)c2ccccc2)c1 (stereo not shown) [example 1, 2-[N-[3-[3-benzoyl-4-(2-phenylpropionyl)amino]phenylamino]carbamoyl]acetic Acid Methylester]",% Inhibition at 10 μM,19%
same,% Inhibition at 100 μM,89%
COC(=O)CC(=O)Nc1ccc(NC(=O)Cc2ccc(C)cc2)c(C(=O)c2ccccc2)c1 [example 2],% Inhibition at 10 μM,19%
same,% Inhibition at 100 μM,95%
Cc1ccc(CC(=O)Nc2ccc(NC(=O)CCC(=O)O)cc2C(=O)c2ccccc2)cc1 [example 3],% Inhibition at 10 μM,0%
same,% Inhibition at 100 μM,38%
COC(=O)CCC(=O)Nc1ccc(NC(=O)Cc2ccc(C)cc2)c(C(=O)c2ccccc2)c1 [example 4],% Inhibition at 10 μM,0%
same,% Inhibition at 100 μM,29%
Cc1ccc(CC(=O)Nc2ccc(NC(=O)CCCC(=O)O)cc2C(=O)c2ccccc2)cc1 [example 5],% Inhibition at 10 μM,0%
same,% Inhibition at 100 μM,59%
COC(=O)CCCC(=O)Nc1ccc(NC(=O)Cc2ccc(C)cc2)c(C(=O)c2ccccc2)c1 [example 6],% Inhibition at 10 μM,0%
same,% Inhibition at 100 μM,98%
"CCCCCCCCCCCCCCCCC(=O)NCC(=O)Nc1ccc(NC(=O)Cc2ccc(C)cc2)c(C(=O)c2ccccc2)c1 [example 7, N-[2-[3-benzoyl-4-[[2-(4-methylphenyl)acetyl]amino]phenylamino]-2-oxoethyl]-heptadecanoic Acid Amide]",inhibition at 10 µM,0%
same,inhibition at 100 µM,83%
"CCCCCCCCCCCCCCC(=O)NCCCC(=O)Nc1ccc(NC(=O)Cc2ccc(C)cc2)c(C(=O)c2ccccc2)c1 [example 8, N-[4-[3-benzoyl-4-[[2-(4-methylphenyl)acetyl]amino]phenylamino]-4-oxobutyl]-pentadecanoic Acid Amide]",inhibition at 10 µM,0%
same,inhibition at 100 µM,93%
CCCCCCCCCCCCCCNC(=O)CCCC(=O)Nc1ccc(NC(=O)Cc2ccc(C)cc2)c(C(=O)c2ccccc2)c1 [example 9],% Inhibition at 10 μM,0%
same,% Inhibition at 100 μM,96%
N-[2-[3-benzoyl-4-[[2-(4-methylphenyl)acetyl]amino]phenylamino]-2-oxo-ethyl]-4-benzoic Acid Amide [compound 25],% Inhibition at 1 μM,0%
same,% Inhibition at 10 μM,0%
same,% Inhibition at 100 μM,86%
N-[3-benzoyl-4-[2-(4-methylphenyl)acetyl]amino]phenyl]-4-(4-nitrophenyl)butyric Acid Amide [compound 31],% Inhibition at 1 μM,0%
same,% Inhibition at 10 μM,93%
same,% Inhibition at 100 μM,96%
